“Also recorded” adds a separate entry of the source. Where two headings read alike, the source gives them in different places.
What was measured:
TNF-α [1] = assay: Purinergic compounds on LPS+PHA-induced TNF-α secretion in whole blood, Experiment 3; type: cell-based, human; settings: for effect on LPS+PHA-induced TNF-α release (FIG. 8): compound at 300 μM, 24 h, order of inhibition adenosine<AMP<ADP<ATP; for anti-inflammatory effects relative to those of ATP: same whole blood model ex vivo; for inhibiting TNFα production in LPS-PHA stimulated whole blood, compared with ATP: pretreatment of whole blood, initial findings, ATP compared with ADP, AMP or adenosine
Method: (§1) Blood is collected as described for Experiment 1. Whole blood is then aliquoted into 24-well sterile plates and diluted 1:4 with RPMI 1640 (supplemented with L-glutamine). To induce cytokine production, PHA and bacterial LPS are added to whole blood at 1 μg/ml and 10 μg/ml respectively. After addition of ATP and stimulants, the plates are incubated in 5% CO2 at 37° C. for 24 h. Cell-free supernatant fluids are then collected by centrifugation (6000 rpm, 10 min at 4° C.) and stored at −20° C. until tested for presence of cytokines. All incubations are performed in duplicate. ATP, dissolved in RPMI 1640 culture medium, is added to the blood at a final concentration of 1-1000 μM. Blood is pre-incubated with ATP at 5% CO2 at 37° C. for 30 min before stimulation with LPS+PHA. The agonists are added in the same way as ATP, however their stock solutions are prepared in PBS and further diluted in medium.

IL-10 [2] = assay: Purinergic compounds on LPS+PHA-induced IL-10 release in whole blood, Experiment 3; type: cell-based, human; settings: pretreatment of whole blood; initial findings; ATP compared with ADP, AMP or adenosine
Method: as §1

[3] = test system: patients with non-small cell lung cancer; settings: 8 stage IIIB/IV patients; 2 to 3 intravenous courses of 96 hours at 4-week intervals (ref 11); cited from earlier work
[4] = test system: patients with non-small cell lung cancer; settings: 15 newly diagnosed patients; after 4 ATP courses (ref 12); cited from earlier work
IL-10 [5] = assay: LPS+PHA-induced IL-10 secretion in whole blood under oxidative stress (H2O2), Experiment 2; type: cell-based, human; settings: whole blood with 1 or 10 mM H2O2, 24 h; ATP 1-300 μM; disodium salt
Method: (§2) Blood was collected from 8 healthy subjects in heparin containing vacutainer tubes (Vacutainer, Becton-Dickinson, 170 I.U). […] Whole blood was aliquoted into 24-well sterile plates and diluted 1:4 with RPMI 1640 (supplemented with L-glutamine). To induce cytokine production, PHA and bacterial LPS were added at 1 μg/ml and 10 μg/ml final concentration respectively. After adding the concentrated solutions of ATP and the stimulants the plates were incubated in 5% CO2 at 37° C. for 24 h. After the incubation cell-free supernatant fluids were collected by centrifugation (6000 rpm, 10 min at 4° C.) and stored at −20° C. until tested for presence of cytokines.
(§3) All cytokines were quantified by means of PeliKine Compact human ELISA kits (CLB/Sanquin, The Netherlands), based on appropriate and validated sets of monoclonal antibodies. Assays were performed as follows. […] The antibody on the microtiter plate then captured the cytokine present in a measured volume of sample or standard, and non-bound material was removed by washing. […] Color development was stopped by addition of sulfuric acid and the intensity of the color was measured by a microtiter plate reader (absorbance at 450 nm). The absorbance was transformed to cytokine concentrations (ng/L) using the standard curve. […]

TNF-α [6] = assay: LPS+PHA-induced TNF-α secretion in whole blood ex vivo (ELISA), Experiment 1; type: cell-based, human; settings: 24 h
From the text: (§4) For the first experiment, purified phyto-haemagglutinin HA16 (PHA) and E. Coli 0.26: B6 lipopolysaccharide (LPS) were from Murex, Dartford, UK and Sigma Chemical Co, St. Louis, USA, respectively. Human TNF-α (7300 pg/ml) was obtained from CLB/Sanquin, The Netherlands. RPMI 1640 medium containing L-glutamine was obtained from Gibco, UK. Adenosine-5′-triphosphate disodium salt (ATP) was purchased from Calbiochem, USA.
(§5) Blood was collected from 8 healthy subjects in heparin containing vacutainer tubes (Vacutainer, Becton-Dickinson, 170 I.U). […] Whole blood was aliquoted into 24-well sterile plates and diluted 1:4 with RPMI 1640 (supplemented with L-glutamine). To induce cytokine production, PHA and bacterial LPS were added at 1 μg/ml and 10 μg/ml final concentration respectively. […]
as §3, with “antibodies.” for “antibodies. Assays were performed as follows.”

[7] = test system: mice bearing colon tumour; settings: daily intraperitoneal injections of 25 mmol/L for 10 consecutive days (refs 9, 10), cited from earlier work
IL-6 [8] = assay: LPS+PHA-induced IL-6 secretion in whole blood ex vivo (ELISA), Experiment 1; type: cell-based, human; settings: whole blood of healthy subjects, 24 h; ATP 1-300 μM; disodium salt
From the text: as §4, §5
as §3, with “antibodies.” for “antibodies. Assays were performed as follows.”

TNF-α [9] = assay: LPS+PHA-induced TNF-α secretion in whole blood under oxidative stress (H2O2), Experiment 2; type: cell-based, human; settings: whole blood with 1 or 10 mM H2O2, 24 h; effect at 100 and 300 μM ATP; disodium salt
Method: as §2, §3

IL-6 [10] = assay: LPS+PHA-induced IL-6 secretion in whole blood under oxidative stress (H2O2), Experiment 2; type: cell-based, human; settings: whole blood with 1 or 10 mM H2O2, 24 h; ATP 1-300 μM; disodium salt
Method: as §2, §3

cancer patients = assay: Safety of intravenous ATP home infusions in cancer patients; type: in vivo, human; settings: over 60 intravenous home infusions in cancer patients
From the text: In order to determine the tolerance for ATP as well as the maximally tolerated dose of ATP, the first ATP infusion is preferably administered under medical supervision, usually in an in- or outpatient setting. Subsequent infusions can either be started at the hospital day care centre, at private homes, nursing homes, etc. according to a standardized protocol.

[11] = test system: advanced non-small-cell lung cancer patients; settings: cited from earlier work
[12] = test system: healthy non-smoking human subjects; assay: Lactulose/rhamnose (L/R) intestinal permeability test after indomethacin, Experiment 4; type: in vivo; settings: indomethacin (75 mg + 50 mg) and ATP into duodenum vs indomethacin only; 5 h urine
Method: Methods Intestinal permeability is tested in healthy non-smoking human subjects using the lactulose/rhamnose (L/R) intestinal permeability test. This barrier function test is based on the comparison of intestinal permeation of molecules of different sizes by measuring the ratio of urinary excretion of the disaccharide lactulose and the monosaccharide rhamnose. These two sugars follow different routes of intestinal permeation, i.e., lactulose permeates through the paracellular pathway, whereas rhamnose permeates transcellulary. The experiments are performed as follows: at t=−14 hrs, a Bengmark-type naso-intestinal tube (Flocare, Zoetermeer, The Netherlands) is installed into the stomach. Next, at t=−10 hrs, subjects ingest a capsule of indomethacin (75 mg) immediately followed by administration of either ATP or placebo directly into the subject's duodenum through the inserted tube. At t=−1 hr, after an overnight fast, subjects receive a second dose of indomethacin (50 mg) followed by either ATP or placebo. Then, at t=0, the permeability test is performed as follows: subjects ingest a hyperosmolar drink containing 5 g of lactulose and 0.5 g of L-rhamnose dissolve d in […] water. After ingestion of the hyperosmolar test drink, total urine produced over 5 hours is collected.

IL-10 [13] = assay: LPS+PHA-induced IL-10 secretion in whole blood ex vivo (ELISA), Experiment 1; type: cell-based, human; settings: 24 h
From the text: as §4, §5
as §3, with “antibodies.” for “antibodies. Assays were performed as follows.”

[14] = whole blood of healthy subjects, effect at 100 and 300 μM ATP (tested 1-300 μM), disodium salt

Q: What does the source list for Nc1ncnc2c1ncn2[C@@H]1O[C@H](COP(=O)(O)OP(=O)(O)O)[C@@H](O)[C@H]1O [ADP]?
A: effect on LPS+PHA-induced TNF-α release (FIG. 8) (TNF-α [1]): inhibited; anti-inflammatory effects relative to those of ATP (TNF-α [1]): less marked

Q: Which “effect on LPS+PHA-induced TNF-α release (FIG. 8)” value (“effect … (FIG. 8)” below) (TNF-α [1]) does the source give for O=c1ccn([C@@H]2O[C@H](COP(=O)(O)OP(=O)(O)O)[C@@H](O)[C@H]2O)c(=O)[nH]1 [UDP] here?
A: Its value is “not inhibited”.

Q: Which “stimulating IL-10 production in LPS-PHA stimulated whole blood, compared with ATP” value (IL-10 [2]) does the source give for CSc1nc(N)c2ncn([C@@H]3O[C@H](COP(=O)(O)OP(=O)(O)OP(=O)(O)O)[C@@H](O)[C@H]3O)c2n1 [2-MeS-ATP, reference compound] here?
A: Its value is “at least partly mimicked”.

Q: What about the “inhibiting TNFα production in LPS-PHA stimulated whole blood, compared with ATP” value (TNF-α [1]) of the same compound?
A: The value was “at least partly mimicked”.

Q: For Nc1ccn([C@@H]2O[C@H](COP(=O)(O)OP(=O)(O)OP(=O)(O)O)[C@@H](O)[C@H]2O)c(=O)n1 [CTP], which “effect … (FIG. 8)” value (TNF-α [1]) is on record?
A: The value was “not inhibited”.

Q: With Nc1ncnc2c1ncn2[C@@H]1O[C@H](COP(=O)([O-])OP(=O)([O-])OP(=O)(O)O)[C@@H](O)[C@H]1O.[Na+].[Na+] [ATP, Adenosine-5′-triphosphate disodium salt] as the compound, how does the “stimulating IL-10 production in LPS-PHA stimulated whole blood, compared with ATP” value (IL-10 [2]) read?
A: Its value is “more effective”.

Q: What about the body weight [3] of the same compound?
A: Its body weight is “stabilisation of body weight”.

Q: And the average weight gain [4]?
A: Its average weight gain is 1.3 kg.

Q: What about the “effect on LPS+PHA-induced IL-10 release under oxidative stress” value (IL-10 [5]) of the same compound?
A: Its value is “significant, dose-dependent rise; also recorded: significantly increased”.

Q: What about the inhibition at 300 µM (TNF-α [6]; Homo sapiens, 300 μM ATP, whole blood, 10 μg/ml LPS + 1 μg/ml PHA, vs stimulation without ATP, read-out: inhibition of the TNF-α production) of the same compound?
A: Its inhibition at 300 µM is 65%.

Q: And the “effect on LPS+PHA-induced TNF-α release” value (TNF-α [6]; [14])?
A: Its value is “dose-dependent inhibition; also recorded: significantly inhibited”.

Q: What about the host weight loss [7] of the same compound?
A: The host weight loss was “significant inhibition of host weight loss”.

Q: And the “effect … (FIG. 8)” value (TNF-α [1])?
A: Its value is “greatest inhibition”.

Q: What about the “inhibiting TNFα production in LPS-PHA stimulated whole blood, compared with ATP” value (TNF-α [1]) of the same compound?
A: The value was “more effective”.

Q: And the “effect on LPS+PHA-induced IL-6 release” value (IL-6 [8])?
A: The value was “failed to significantly alter; also recorded: not influenced”.

Q: What about the “effect on LPS+PHA-induced TNF-α release under oxidative stress” value (TNF-α [9]) of the same compound?
A: The value was “dose-dependent reduction; also recorded: significantly inhibited”.

Q: And the “effect on LPS+PHA-induced IL-6 release under oxidative stress” value (IL-6 [10])?
A: Its value is “no effect; also recorded: not influenced”.

Q: What about the hospital admissions (cancer patients) of the same compound?
A: Its hospital admissions is “No hospital admissions were necessary”.

Q: And the “serious side effects on the WHO Common Toxicity Criteria scale” value (cancer patients)?
A: Its value is “no serious side effects grade 3-4”.

Q: What about the “physical and functional quality of life, appetite, and muscle strength” value ([11]; ATP group, progressively deteriorated in control group (ref 13)) of the same compound?
A: Its value is “remained stable”.

Q: What about the life-threatening side effects ([11]; ATP infusion during 30 hrs, previous study (13)) of the same compound?
A: Its life-threatening side effects is “did not find any life-threatening side effects”.

Q: And the “plasma levels of pro- or anti-inflammatory cytokines” value ([11]; further analyses, Dagnelie et al. 2003, unpublished data)?
A: Its value is “no effect”.

Q: What about the “loss of weight and muscle mass” value ([11]; regular infusions vs control group with supportive care only (ref 13)) of the same compound?
A: The value was “inhibited loss of weight and muscle mass”.

Q: And the “urinary concentration ratio of lactulose relative to rhamnose” value [12]?
A: Its value is “lower”.

Q: What about the “stimulation of the IL-10 production” value (IL-10 [13]; 300 μM ATP, whole blood, 10 μg/ml LPS + 1 μg/ml PHA, vs stimulation without ATP) of the same compound?
A: Its value is 62%.

Q: What about the “effect on LPS+PHA-induced IL-10 release” value (IL-10 [13]; [14]) of the same compound?
A: Its value is “increased the release of IL-10; also recorded: significantly increased”.

Q: For Nc1ncnc2c1ncn2[C@@H]1O[C@H](COP(=O)(O)O)[C@@H](O)[C@H]1O [AMP], which host weight loss [7] is on record?
A: The host weight loss was “significant inhibition of host weight loss”.

Q: And the “effect … (FIG. 8)” value (TNF-α [1])?
A: The value was “inhibited”.

Q: And the “anti-inflammatory effects relative to those of ATP” value (TNF-α [1])?
A: The value was “less marked”.

Q: Which host weight loss [7] does the source give for Nc1ncnc2c1ncn2[C@@H]1O[C@H](CO)[C@@H](O)[C@H]1O [adenosine] here?
A: Its host weight loss is “significant inhibition of host weight loss”.

Q: And the host weight loss ([7]; listed as adenosine without phosphate)?
A: Its host weight loss is “ineffective”.

Q: What about the “effect … (FIG. 8)” value (TNF-α [1]) of the same compound?
A: The value was “least inhibition”.

Q: With O=c1ccn([C@@H]2O[C@H](COP(=O)(O)OP(=O)(O)OP(=O)(O)O)[C@@H](O)[C@H]2O)c(=O)[nH]1 [UTP, uridine 5′-triphosphate] as the compound, how does the “effect … (FIG. 8)” value (TNF-α [1]) read?
A: The value was “not inhibited”.
